Here are results for 11 compounds from US5350765A, “Ether-containing inhibitors of 5-lipoxygenase” (Abbott Laboratories, priority 1993, dated 1994).

The test deals with T1, 5-Lipoxygenase (Homo sapiens, UniProt P09917).
T1 construct: endogenous in cells; host or cells: human heparinized whole blood (blood leukocytes), stimulated with calcium ionophore A23187
T1 sequence (P09917 1-674): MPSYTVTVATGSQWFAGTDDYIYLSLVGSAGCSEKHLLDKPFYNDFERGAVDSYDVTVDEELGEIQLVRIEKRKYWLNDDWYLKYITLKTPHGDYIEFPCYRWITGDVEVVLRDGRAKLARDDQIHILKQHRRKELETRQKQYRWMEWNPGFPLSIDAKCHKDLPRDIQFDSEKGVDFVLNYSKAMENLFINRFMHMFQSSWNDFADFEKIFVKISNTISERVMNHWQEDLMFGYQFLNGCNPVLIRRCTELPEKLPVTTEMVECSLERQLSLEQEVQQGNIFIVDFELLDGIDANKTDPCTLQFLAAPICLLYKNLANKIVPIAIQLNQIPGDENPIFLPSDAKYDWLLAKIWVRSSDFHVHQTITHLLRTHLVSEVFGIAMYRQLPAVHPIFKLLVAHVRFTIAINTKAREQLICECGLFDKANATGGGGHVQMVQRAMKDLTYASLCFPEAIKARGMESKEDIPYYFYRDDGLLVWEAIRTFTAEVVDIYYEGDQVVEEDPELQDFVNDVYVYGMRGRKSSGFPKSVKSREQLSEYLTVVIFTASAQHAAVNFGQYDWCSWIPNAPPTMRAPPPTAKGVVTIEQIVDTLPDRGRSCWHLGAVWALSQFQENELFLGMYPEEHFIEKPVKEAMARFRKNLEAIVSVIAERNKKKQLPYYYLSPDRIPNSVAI
The test is described as follows: Inhibition of calcium ionophore-induced LTB4 biosynthesis in human whole blood. Format: cell-based. As to conditions: A23187 8.3 μM; for IC50: human heparinized whole blood, 15 min preincubation at 37° C., 30 min, LTB4 by radioimmunoassay, read-out: IC50, in vitro inhibitory potency against 5-lipoxygenase from stimulated LTB4 formation in human whole blood. As to the method: Inhibition of leukotriene biosynthesis was evaluated in an assay, involving calcium ionophore-induced LTB4 biosynthesis expressed human whole blood. Human heparinized whole blood was preincubated with test compounds or vehicle for 15 min at 37° C. followed by calcium ionophore A23187 challenge (final concentration of 8.3 μM) and the reaction terminated after 30 min by adding two volumes of methanol containing prostaglandin B2 as an internal recovery standard. The methanol extract was analyzed for LTB4 using a commercially available radioimmunoassay.

Where [1] appears, read: human whole blood, read-out: % inhibition of stimulated LTB4 formation in human whole blood.

For `COC1(C#CCOCc2ccc3ccccc3c2)CCOCC1` [Example 1, 4-methoxy-4-[3-((napth-2-yl)methoxy)-prop-1-ynyl]tetrahydropyran], the IC50 came to 3800 nM.

On to `COC1(/C=C/COCc2ccc3ccccc3c2)CCOCC1` [Example 3], for which the IC50 turned out to be 700 nM.

Consider `COC1(/C=C/CSc2ccc3ccccc3c2)CCOCC1` [Example 19, 4-methoxy-4-[3-(napth-2-ylthioxy)-trans-prop-1-enyl]tetrahydropyran], for which the inhibition at 0.1 µM (at 0.10 μM, human whole blood, read-out: % inhibition of stimulated LTB4 formation in human whole blood) stood at 34%.

In the case of `COC1(C#CC(C)OCc2ccc3ccccc3c2)CCOCC1` (centres unmarked) [Example 2, 4-methoxy-4-[3-methyl-3-(((napth-2yl)methoxy))-prop-1-ynyl]tetrahydropyran], the inhibition at 12.5 µM under setting [1] amounted to 95%.

On to `COC1(/C=C/COCc2ccc3c(ccc(=O)n3C)c2)CCOCC1` [Example 6, 4-methoxy-4-[3-((1,2-dihydro-1-methyl-2-oxoquinolin-6-yl)methoxy)-trans-prop-1-enyl]tetrahydropyran], for which the inhibition at 0.39 µM under setting [1] amounted to 51%.

For the compound `COC1(/C=C/C(=O)NCc2ccc3ccccc3c2)CCOCC1` [Example 20, 3-(4-methoxytetrahydropyran-4-yl)-N-((napth-2-yl)methyl)-trans-propionyl amide], the IC50 worked out at 260 nM.

Regarding `COC1(CCCOCc2ccc3ccccc3c2)CCOCC1` [Example 5, 4-methoxy-4-[3-((napth-2yl)methoxy)-prop-1-yl]tetrahydropyran], the IC50 stood at 1500 nM.

For the compound `COC1(/C=C/COCC#Cc2ccccn2)CCOCC1` [Example 22, 4-methoxy-4-[3-((2-(pyrid-2-yl)ethynyl)methoxy)-trans-propen-1-yl]tetrahydropyran], the inhibition at 12.5 µM under setting [1] worked out at 18%.

On to `COC1(/C=C/C(=O)NCc2ccc3c(ccc(=O)n3C)c2)CCOCC1` [Example 21], for which the inhibition at 0.39 µM under setting [1] was determined as 50%.

For the compound `COC1(/C=C/COCc2ccc(-c3ccccc3)cc2)CCOCC1` [Example 8, 4-methoxy-4-[3-((4-phenylphen-1-yl)methoxy)-trans-prop-1-enyl]tetrahydropyran], under setting [1], the inhibition at 12.5 µM was determined as 11%.

As for `COC1(/C=C/C(C)OCc2ccc3ccccc3c2)CCOCC1` (stereo not drawn) [Example 4, 4-methoxy-4-[3-methyl-3-((napth-2yl)methoxy)- trans-prop-1-enyl]tetrahydropyran], the inhibition at 12.5 µM under setting [1] is 99%.

As usually defined, the IC50 is the concentration that inhibits the measured activity by half. By inhibition is commonly meant the percentage by which the read-out fell short of the control.
